Results as given in patent US7510825B2, “Kits and methods for detection of apoptotic cells” (NST NeuroSurvival Technologies Ltd, priority 2000, dated 2009).

Columns and labels:
[1] = test system: ischemic brain, damaged neuronal cells; experiment: DDC staining of ischemic damage following transient MCA occlusion; assay type: in vivo, rats; conditions: 2 h MCA occlusion and reperfusion, DDC at 22 hours
Description: A. Administration of DDC in-vivo: Injection of 200 μl of DDC intravenously. Following 1-2 hours, animal is sacrificed, and the desired organ is placed in a test tube or on a small plate, suitable for liquid nitrogen freezing. The plate is then covered with an aluminum foil, and transferred to liquid nitrogen. Following 5-30 minutes the specimen is being frozen to −80° C. and kept at −80° C. for at least 16 hr. B. Analysis of the Specimen: • a. Whole organ imaging Ex-vivo whole organ fluorescence imaging may be carried out on freshly excised specimen, that can be analyzed under a stereomicroscope (such as Leica MZ FL III, Leica Switzerland). […] Emitted fluorescence can be imaged using appropriate camera and software, such as a Leica DC 300F Distal camera and images can be processed and analyzed by Leica QWin Lite software. • b. […] Analysis of the tissue sections can be performed using a fluorescence microscope with a UV filter characterized by excitation at 360-370 nm (band pass) and emission at 420 nm (barrier filter) In case that staining of the examined tissue is desired, the following procedures can be applied:
Transient focal ischemia was induced by middle cerebral artery (MCA) occlusion and reperfusion. […] At 22 hours from MCA occlusion, neurological score was assessed and DDC was injected I.V. (as detailed in DDC protocols II-A) for a successive 2 h before sacrificing the animals. […]

[2] = test system: neurons of the ischemic region; experiment: Detection by DDC of permanent ischemia by MCA cauterization; assay type: in vivo, mice; conditions: DDC i.v. 22 hours from the insult; adjacent slides
Description: A. Administration of DDC in-vivo: Injection of 200 μl of DDC intravenously. Following 1-2 hours, animal is sacrificed, and the desired organ is placed in a test tube or on a small plate, suitable for liquid nitrogen freezing. The plate is then covered with an aluminum foil, and transferred to liquid nitrogen. Following 5-30 minutes the specimen is being frozen to −80° C. and kept at −80° C. for at least 16 hr. B. Analysis of the Specimen: • a. Whole organ imaging Ex-vivo whole organ fluorescence imaging may be carried out on freshly excised specimen, that can be analyzed under a stereomicroscope (such as Leica MZ FL III, Leica Switzerland). DDC may be visualized using 360cx and >420cm nm filter set. Emitted fluorescence can be imaged using appropriate camera and software, such as a Leica DC 300F Distal camera and images can be processed and analyzed by Leica QWin Lite software. • b. Histological analysis, from the frozen organ or tissue, 4 μm cryosections are prepared on slides. Analysis of the tissue sections can be performed using a fluorescence microscope with a UV filter characterized by excitation at 360-370 nm (band pass) and emission at 420 nm (barrier filter) In case that staining of the examined tissue is desired, the following procedures can be applied:
A permanent ischemia by MCA cauterization was induced in Balb/c mice (Harlan laboratories). […]

[3] = test system: injured renal tissues (outer medulla); experiment: Radiocontrast-induced distal tubular necrosis model, detection by DDC; assay type: in vivo, rat; conditions: 24 h after radiocontrast insult, DDC i.v. 2 hours
Description: A. Administration of DDC in-vivo: Injection of 200 μl of DDC intravenously. Following 1-2 hours, animal is sacrificed, and the desired organ is placed in a test tube or on a small plate, suitable for liquid nitrogen freezing. The plate is then covered with an aluminum foil, and transferred to liquid nitrogen. Following 5-30 minutes the specimen is being frozen to −80° C. and kept at −80° C. for at least 16 hr. B. Analysis of the Specimen: • a. Whole organ imaging Ex-vivo whole organ fluorescence imaging may be carried out on freshly excised specimen, that can be analyzed under a stereomicroscope (such as Leica MZ FL III, Leica Switzerland). DDC may be visualized using 360cx and >420cm nm filter set. Emitted fluorescence can be imaged using appropriate camera and software, such as a Leica DC 300F Distal camera and images can be processed and analyzed by Leica QWin Lite software. • b. […] Analysis of the tissue sections can be performed using a fluorescence microscope with a UV filter characterized by excitation at 360-370 nm (band pass) and emission at 420 nm (barrier filter) In case that staining of the examined tissue is desired, the following procedures can be applied:
The selectivity of DDC uptake in injured renal tissues was evaluated in this rat model, characterized by selective medullary hypoxic tubular damage. […]

[4] = test system: red blood cells (RBC); experiment: Selective binding of DDC to activated red blood cells, flow cytometry; assay type: cell-based; conditions: DDC 500 μM
Description: Activation of intact RBC, was induced by a combined treatment with N-ethylmaleimide (NEM) and calcium ionophore, in the presence of Ca 2+.
Fresh RBC were obtained, diluted to 0.1 of their initial volume with buffer A (143 mM NaCl; 2 mM KCl; 0.1% Glucose; 10 mM NaH2PO4; pH=7.4), and washed 4 times in the above buffer. Cells were then re-suspended in buffer B (55 mM NaCl; 90 mM KCl, 0.1% glucose, 10 mM HEPES; pH=7.4). These cells were thereafter used as control cells. For activation, the cells were treated for 15-60 min at 37° C. with a combination of 2 mM CaCl, 5 μM of the Calcium ionophore A23187 and 5 mm of NEM. Cells were then washed twice with buffer B containing 0.1% of bovine serum albumin, and finally re-suspended in Buffer B containing 2 mM CaCl2 For examination of binding of DDC to the cells, DDC was dissolved in 0.1M NaPPi, pH=7.4, at a stock concentration of 1 mM. Binding assays were performed at a final concentration of 500 μM, and level of binding was evaluated by flow cytometry.

[5] = test system: platelets; experiment: Selective binding of DDC to activated platelets, flow cytometry; assay type: cell-based; conditions: 10 μM DDC for 5 minutes
Description: The selective binding of DDC to activated platelets was determined using flow cytometric (FACS) analysis. Platelet-rich plasma was obtained from healthy volunteers. 10^9 of the fresh platelets were centrifuged (5 minutes, 380×g), washed and re-suspended in Tyrode's buffer (137 mM NaCl; 2.8 mM KCl; 1 mM MgCl2, 12 mM NaHCO3; 0.4 mM Na2HPO4; 5.5 mM D-glucose and 10 mM Hepes pH 7.4; 0.35% BSA). The purified platelets were kept on ice, and served as controls.
For activation, 200 μl of washed platelets were incubated with a mixture of 0.05 units/ml of thrombin and 5 μg/ml collagen for 5 min. at 37°, in the presence of 2 mM CaCl2 in a final volume of 1 ml. Following incubation, the platelets were centrifuged (2 min. at 10^4 rpm) and resuspended in 1 ml of Tyrode's buffer.
Activated and control non-treated platelets were incubated with 10 μM of DDC for 5 minutes at room temperature. […] Excitation was at 360 nm and emission was measured at 530 nm. […] While only a small fraction of the control platelets manifested binding of DDC (3.6% of the population), platelet activation caused 81% of the platelet population to acquire a marked DDC binding, reflected as a distinct shift to higher fluorescence intensity. As shown in tile FACS histogram in FIG. 21B, activation was associated with a major shift of the whole platelet population to higher fluorescence intensity. […]

CN(C)c1cccc2c(S(=O)(=O)NC(CSSCC(NS(=O)(=O)c3cccc4c(N(C)C)cccc34)C(=O)O)C(=O)O)cccc12 (centres unmarked) [DDC]
DDC staining around the ischemic core and in the non-damaged contra-lateral hemisphere [1]: No staining was detected | DDC staining of the ischemic core ([1]; ex-vivo coronal section): high intensity staining | correlation of DDC staining of single neurons with H&E staining [2]: high correlation with H&E staining | DDC distribution pattern versus morphological findings in the contralateral kidney [3]: closely followed the characteristic striped pattern | staining of red blood cells with DDC ([4]; RBC activated by NEM, calcium ionophore A23187 and Ca2+): substantial shift to higher fluorescence levels | staining of red blood cells with DDC ([4]; intact RBC): did not stain significantly | fraction of platelet population binding DDC ([5]; control platelets): 3.6% | fraction of platelet population binding DDC ([5]; platelets activated by thrombin and collagen): 81%
